Data published in patent US5840740A, “Aminosterol compounds and a method of treating infection using the aminosterol compounds” (priority 1995, dated 1998).
≈ marks a conversion by molar mass, not a printed value. Entries after “also recorded” stand apart in the source; their conditions may differ. Read-outs that look alike come from different tables or passages of the source.

Legend:
[1] = test system: chick embryo vitelline capillaries; experiment: Chick embryo vitelline capillary regression assay; format: in vivo; design: key to vascular reactivity (capillary regression): +: Vascular reactivity; 0: No vascular reactivity; +/-: Equivocal reactivity; details: for Chick embryo diss. assay, Minimum Effective Concentration: Table II; for vascular reactivity (capillary regression): 60 min
Method: Using the chick embryo vitelline capillaries assay, compounds were tested for their ability to induce capillary regression. Each compound was applied in 0.1 ml of 15% Ficol 400 and PBS onto the embryo, and vascular regression was assessed after 60 minutes.
The 3-day chick embryo consists of an embryonic disc from which numerous vessels emerge and return, forming a "figure 8"-shaped structure--the embryo in the center with vascular loops extending outward over both poles. […] Following a lag period of around 15 minutes, the constriction of continuity between capillary and secondary vessels, generally on the "avenous" side, was observed. Continued pulsatile blood flow progressed, resulting in a "swelling" of the blind tube, followed by a pinching off of the remaining connection and formation of an enclosed vascular sac resembling a "blood island." This process progressed until only the largest vessels remained intact.

Xenopus tadpole = details: stage 59-60, 10 μg/ml; for pharmacological response in tadpole: in words
HM = HM MTT assay; format: cell-based; details: Table II, Minimum Effective Concentration
Chemical stability = format: physicochemical
S. aureus = experiment: Antibiotic activity (MIC); format: cell-based; details: Staphylococcus aureus
[2] = Arterial resistance / pressure in the rat; format: in vivo; details: 30 minutes; noradrenaline 40 μg
Method: A 200-g rat was catheterized in the right carotid artery, and the compound was introduced over a ten-second period to a total dosage of 5 mg/kg.
At that time, 40 μg of noradrenaline was introduced.

[3] = test system: human coronary artery smooth muscle; experiment: Proliferation of human coronary artery smooth muscle in vitro; format: cell-based; details: in words (1436: about 11 μg/ml)
Source text: Aminosterols of the invention may also have utility in inhibiting the growth factor mediated proliferation of smooth muscle within the artery. Following coronary angioplasty, reocclusion commonly occurs, secondary to reparative proliferation of the vascular smooth muscle within the wall of the surgically manipulated blood vessel. This process generally takes place over the course of 7-10 days. To evaluate whether an agent could prevent the growth factor mediated proliferation of smooth muscle within the artery, compound 1436 was evaluated in vitro for its effect on the proliferation of human coronary artery smooth muscle. Results for compound 1436 are shown in FIG. 13, and those for squalamine are shown in FIG. 14, with FIG. 15 being a composite logarithmic plot.

Murine B16 melanoma = experiment: Growth inhibition in vitro; format: cell-based; details: 10 μg/ml
Source text: (§1) As set forth in Table 7 below, all malignant tumors evaluated in tissue culture, endothelial cells and vascular smooth muscle cells were sensitive to inhibition. Thus, compound 1436 has application in the control of growth factor dependent proliferation of many types of tissue.

[4] = test system: bovine pulmonary endothelial cells; experiment: Growth inhibition in vitro; format: cell-based; details: 10 μg/ml
Source text: as §1

[5] = test system: Human ovarian carcinoma SKOV3; experiment: Growth inhibition in vitro; format: cell-based; details: 10 μg/ml
Source text: as §1

[6] = test system: Human coronary artery smooth muscle cells; experiment: Growth inhibition in vitro; format: cell-based; details: 10 μg/ml
Source text: as §1

[7] = test system: Human colon carcinoma HT29; experiment: Growth inhibition in vitro; format: cell-based; details: 10 μg/ml
Source text: as §1

Human melanoma WM 1617 = experiment: Growth inhibition in vitro; format: cell-based; details: 10 μg/ml
Source text: as §1

Lewis lung carcinoma = experiment: Growth inhibition in vitro; format: cell-based; details: 10 μg/ml
Source text: as §1

[8] = test system: Human microvascular endothelial cells; experiment: Growth inhibition in vitro; format: cell-based; details: 10 μg/ml
Source text: as §1

[9] = test system: human umbilical venous endothelial cells; experiment: Growth inhibition in vitro; format: cell-based; details: 10 μg/ml
Source text: as §1

Murine L1210 leukemia = experiment: Growth inhibition in vitro; format: cell-based; details: 10 μg/ml
Source text: as §1

[10] = test system: Human colon carcinoma SW948; experiment: Growth inhibition in vitro; format: cell-based; details: 10 μg/ml
Source text: as §1

[11] = Growth and weight gain in mice; format: in vivo, mouse (C57B)
Method: Animals were dosed QTD (i.p.) starting on Day 1. […] Animals receiving 5 mg/kg QTD experienced about a 50% reduction in growth, compared to untreated controls, while animals receiving 1 mg/kg QTD were affected by about 10%. […] They appeared very much like hypophysectamized animals might appear.

B16 melanoma = B16 melanoma growth in C57B mice; format: in vivo, mouse; details: squalamine 5 mg/kg/day; compound 1436 10 mg/kg/every 3 days
Method: The growth of B16 melanoma in C57B mice is dependent upon neovascularization.
Using the growth of B16 melanoma cells in C57B mice, a recognized model for the evaluation of inhibitors of angiogenesis on the growth of cancers, the effects of subcutaneous, intraperitoneal and oral administration of squalamine were evaluated.
In this model, there was observed little evidence of metastasis with or without treatment with chemotherapeutic agents.
Based on the idea that tumor growth involves both the clonal expansion of a malignant cell along with the development of a supporting vascular supply, a combination of compound 1436 with squalamine was tested to determine whether it would achieve a synergistic effect on solid tumor growth. This concept was evaluated in the B16 melanoma model.
Animals were implanted with B16 melanoma followed by treatment with compound 1436 or 1256 administered in a combined schedule or separately. […] Thus, a combination of these two compounds achieves a therapeutic benefit in tumors dependent on neovascularization that may prevent metastatic spread.

[12] = Hematological profile in L1210-inoculated mice; details: L1210 mice; cisplatin 8 mg/kg ip or compound 1436 10 mg/kg ip q4d
Source text: C57B mice were inoculated with L1210 lymphoblastic leukemia cells at an inoculum that causes leukemia in 100% of animals.

rabbit NHE3 = rabbit NHE3 (Oryctolagus cuniculus, UniProt P26432); details: 10 μg/ml, acid preloaded
Chain of rabbit NHE3 (P26432 30-832): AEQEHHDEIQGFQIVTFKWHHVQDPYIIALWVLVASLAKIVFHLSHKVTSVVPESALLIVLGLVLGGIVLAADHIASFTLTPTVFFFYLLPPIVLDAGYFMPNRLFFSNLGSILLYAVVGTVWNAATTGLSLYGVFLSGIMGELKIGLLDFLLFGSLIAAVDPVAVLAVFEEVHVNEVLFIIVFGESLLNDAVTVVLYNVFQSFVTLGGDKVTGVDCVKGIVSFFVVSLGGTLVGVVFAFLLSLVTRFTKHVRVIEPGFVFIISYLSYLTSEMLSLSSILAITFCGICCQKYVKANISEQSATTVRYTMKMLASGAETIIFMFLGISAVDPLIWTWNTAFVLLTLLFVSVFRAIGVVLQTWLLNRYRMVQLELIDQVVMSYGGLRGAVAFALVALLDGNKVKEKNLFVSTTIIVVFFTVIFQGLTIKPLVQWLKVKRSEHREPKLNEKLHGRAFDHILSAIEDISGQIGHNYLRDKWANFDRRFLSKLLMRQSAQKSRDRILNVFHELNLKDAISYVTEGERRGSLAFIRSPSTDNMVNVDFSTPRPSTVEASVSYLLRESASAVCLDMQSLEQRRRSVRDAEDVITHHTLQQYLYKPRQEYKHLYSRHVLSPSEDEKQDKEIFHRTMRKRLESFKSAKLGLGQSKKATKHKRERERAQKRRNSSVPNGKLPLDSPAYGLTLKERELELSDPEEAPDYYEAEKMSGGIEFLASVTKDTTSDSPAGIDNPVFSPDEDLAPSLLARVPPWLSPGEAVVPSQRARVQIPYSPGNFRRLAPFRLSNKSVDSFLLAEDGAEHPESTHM
Method: For cells not acid-preloaded, the actual internal pH value was monitored as a function of time following addition of squalamine, with the results depicted in FIG. 1B.
PS120 fibroblasts transfected with rabbit NHE3 were grown and acid preloaded by exposure to 40 mM NH4 C1 as described above in conjunction with FIGS. 1A and 1B. Internal cellular pH changes expressed as the rate of pH recovery as a function of restored extracellular sodium ion concentration following exposure to 10 μg/ml of the compound were assayed with the fluorescent dye BCECF-AM as described above.

[13] = test system: malignant tumors, endothelial cells and vascular smooth muscle cells; experiment: Inhibition of growth of a spectrum of cells; format: cell-based; details: in words
Source text: as §1

[14] = Fasting blood glucose in mice; format: in vivo, mouse (male CD-1); details: i.v.; in words
Method: To study the effect of steroid administrator or the NHE responsible for secretion of insulin, several of the aminosterols from shark liver were administered to fasting mice. Male CD-1 mice were assigned to one of four treatment groups. Whole blood glucose was tested using glucometer (Lifescan Glucometer II and One Touch test strips). Statistical analysis was via one-way analysis of variance (ANOVA) followed by subsequent Bonferonni's t-test.

[15] = test system: PHA-stimulated human lymphocytes; experiment: Inhibition of mitogen (PHA)-stimulated growth of human T-cells; format: cell-based; details: in words; 10 μg/ml
Source text: Results are tabulated below.

Xenopus laevis heart = experiment: Isolated frog heart beating ex vivo; details: 10 μg/ml, room temperature; about one hour without compound
Method: To determine if compound 1436 has such utility, the following experiment was performed. The heart of a juvenile Xenopus laevis frog was dissected from the living animal. The heart was placed into a Petri dish containing Krebs-Ringer buffer with adrenaline 50 μg/ml, and examined with the naked eye. At room temperature, the heart continued beating in a coordinated fashion (atrial beat followed by ventricular beat) for about one hour. In the presence of 10 μg/ml of compound 1436, spontaneous beating persisted up to 24 hours.

HIV = experiment: Inhibition of HIV replication (P-24 Elisa); format: cell-based; details: 7 days

SMILES: CC(C)CCC[C@@H](C)[C@H]1CC[C@H]2[C@@H]3[C@H](O)C[C@H]4C[C@H](NCCCNCCCCN)CC[C@]4(C)[C@H]3CC[C@]12C [Compound 370]
- Chick embryo diss. assay, Minimum Effective Concentration [1]: > 10 µg
- pharmacological response in tadpole (Xenopus tadpole): pharmacologic activity similar to that seen for FX 3
- minimal effective concentration (HM): 40 µg/mL

SMILES: CC(CCC(=O)C(C)(C)OS(=O)(=O)O)[C@H]1CCC2C3C(CC[C@@]21C)[C@@]1(C)CC[C@H](NCCCNCCCCN)C[C@@H]1C[C@H]3O (stereo partly drawn) [FX 1A]
- stability in water (Chemical stability): undergo conversion to another molecule (FX 1B) rapidly in water

SMILES: CC(COS(=O)(=O)O)C(=O)CC[C@@H](C)[C@H]1CC[C@H]2[C@@H]3[C@H](O)C[C@H]4C[C@@H](NCCCNCCCCN)CC[C@]4(C)[C@H]3CC[C@]12C (stereo partly drawn)
- MIC (S. aureus): 8 µg/mL (≈ 12.5 µM)

SMILES: CC(C)[C@@H](CC[C@@H](C)[C@H]1CC[C@H]2[C@@H]3[C@H](O)C[C@H]4C[C@@H](NCCCNCCCCNCCCN)CC[C@]4(C)[C@H]3CC[C@]12C)OS(=O)(=O)O [Compound 1436]
- duration / reversibility of arterial effect [2]: followed for 30 minutes, without significant change; also recorded: readily reversible by standard pharmacological practice
- growth suppression / viability of smooth muscle cells [3]: maintained in a quiescent state in the presence of this steroid at about 11 μg/ml without loss of viability; also recorded: suppress in vitro the growth of human coronary artery smooth muscle
- vascular reactivity (capillary regression) ([1]; 0.001 μg applied): +/-
- vascular reactivity (capillary regression) ([1]; 0.01 μg applied): +
- vascular reactivity (capillary regression) ([1]; 0.1 μg applied): +
- vascular reactivity (capillary regression) ([1]; 1 μg applied): +
- vascular reactivity (capillary regression) ([1]; 10 μg applied): +
- Chick embryo diss. assay, Minimum Effective Concentration [1]: 1 µg
- effect on chick embryo vessels / blood ([1]; in words): causes vitelline capillary regression with about the same potency as squalamine
- growth inhibition in vitro (Murine B16 melanoma): INHIBITED
- growth inhibition in vitro [4]: INHIBITED
- growth inhibition in vitro [5]: INHIBITED
- growth inhibition in vitro [6]: INHIBITED
- growth inhibition in vitro [7]: INHIBITED
- growth inhibition in vitro (Human melanoma WM 1617): INHIBITED
- growth inhibition in vitro (Lewis lung carcinoma): INHIBITED
- growth inhibition in vitro [8]: INHIBITED
- growth inhibition in vitro [9]: INHIBITED
- growth inhibition in vitro (Murine L1210 leukemia): INHIBITED
- growth inhibition in vitro [10]: INHIBITED
- effect on growth of mice ([11]; 1 mg/kg QTD i.p.): about 10%
- reduction in growth of mice ([11]; 5 mg/kg QTD i.p.): ~50%
- growth suppression in mice ([11]; 10 mg/kg QTD i.p., about 1 month): almost completely inhibited
- clinical health of treated mice ([11]; QTD i.p.): all were active, normally proportioned, not-cachectic, and in excellent apparent clinical health
- suppression of growth and weight gain ([11]; in words, QTD i.p.): suppresses both linear growth and weight gain in growing mice in a dose-dependent fashion; also recorded: suppresses the growth of mice in a dose-dependent fashion
- effect on B16 tumor volume, single agent and combination (B16 melanoma): no significant impact on tumor volume
- RBC, Early Time [12]: 4.8 10^6 /mm^3
- RBC, Late Time [12]: 8.8 10^6 /mm^3
- WBC, Early Time [12]: 3.3 10^3 /mm^3
- WBC, Late Time [12]: 3.7 10^3 /mm^3
- time to death (Xenopus tadpole): about 2 hours
- pharmacological response in tadpole (Xenopus tadpole): Gradual reduction in overall activity. Heart beat remained strong, suggesting nervous system depression. Melanocytes over head and tail began to swell, first exhibiting visibly distinct nuclei, followed by rupture into fragments.
- inhibition of rabbit NHE3 (rabbit NHE3): inhibit rabbit NHE3
- inhibition of rabbit NHE3 (rabbit NHE3; listed as compound 1436): inhibitor of NHE3
- growth inhibition of a broad spectrum of cells [13]: inhibit the growth of a very broad spectrum of cells
- hyperglycemia [14]: caused hyperglycemia in mice
- inhibition of blast transformation [15]: inhibited blast transformation most potently
- persistence of spontaneous beating (Xenopus laevis heart): up to 24 hours
- P-24 Elisa (HIV; 0.5 μM): 40561
- P-24 Elisa (HIV; 1 μM): 7464
- P-24 Elisa (HIV; 5 μM): 3426
- P-24 Elisa (HIV; 10 μM): 421
- P-24 Elisa (HIV; 20 μM): 9
